# According to patent publication US20240115672A1, “TREATMENT OF AN IOP CONDITION” (THE RESEARCH FOUNDATION FOR THE STATE UNIVERSITY OF NEW YORK, priority 2021, published 2024):
# Columns and labels:
# [1] = system: sheep of the Corriedale breed; assay: IOP in prednisolone-treated sheep after intravitreal tPA (Example 3, Protocol 1); format: in vivo
# Protocol: Methods. The inventors used recombinant human tissue plasminogen activator (rtPA) ([…]; Boehringer Ingelheim SA, Buenos Aires, Argentina) in two different protocols.
# Protocol 1. 8 sheep of the Corriedale breed were treated with prednisolone acetate three times a day in both eyes, leading to elevated IOP. After one week, the animals received intravitreal injections of human recombinant tPA (100, 200, 500 and 1000 μg, two animals each) dissolved in balanced salt solution (BSS) in one eye. IOP was monitored for 19 more days while the animals continued to receive treatment with prednisolone. Periodic slit lamp examination was also performed.
# sheep = assay: Sheep given tPA or arginine concurrently with prednisolone (Example 3 Protocol 2, Example 4); format: in vivo; conditions: 11 days
# Protocol: Protocol 2. In a second set of experiments, arginine was added to the BSS vehicle administered to the left eye to control for the relatively high concentration of the amino acid in the commercially available tPA lyophilisate. In these experiments all right eyes received 0.1 mg tPA, which concomitantly delivered 4.23 mg of arginine into the vitreous, and the left eye received this same amount of arginine, absent the tPA. On Day 1, prednisolone treatments were also begun simultaneously on both eyes.
# Methods. In this experiment, the inventor sought to detect the effects of tPA treatment on prevention of steroid-induced IOP elevation. In 4 sheep tPA was injected in one eye (100 μg) and they were started on prednisolone acetate three times a day in both eyes. Animals were monitored for 11 days on continuous treatment.
# [2] = system: sheep of the Coriedale breed; assay: IOP in prednisolone-treated sheep after tPA injection into the anterior chamber (Example 9); format: in vivo; conditions: 0.0001 μg into the AC; IOP 23.0 mm Hg at 6:00 and 30:00 hrs after injection
# Protocol: Methods. Lyophilized IPA, obtained as Acetilyse® from Boehringer Ingelheim S.A. (Buenos Aires) containing arginine. was used. Five sheep of the Coriedale breed were selected. Initially all eyes received instillation of 1% prednisolone 3 times/day for 10 days to elevate their IOP from 10 mm Hg to about 23 mm Hg. Then, 0.0001 μg was injected into one of the eyes and its effect was followed for up to 55:00 hrs while the instillation of prednisolone continued in both eyes. The same protocol was implemented for the 0.001 and 0.01 μg amounts (after extended washout) in the contra lateral eyes. Arginine, which is associated with 0.01 ug tPA, was injected alone and had no effect.
# Mmp-9KO mice = assay: Outflow facility in protein treated Mmp-9KO mouse eyes (Example 16); format: in vivo; conditions: Mmp-9KO eyes, intravitreal; p>0.05 ANOVA
# From the text: Animals: 8- to 12-week-old female mice were used for this study. The animals were housed and bred at the State University of New York (SUNY) Downstate Health Sciences University Division of Comparative Medicine (Brooklyn. NY) under a 12-hour light/12-hour dark cycle and food ad libitum. C57BL/6J mice were obtained from The Jackson Laboratories (Bar Harbor, ME, USA). A PlatKO mouse colony was established from animals (stock No. 002508) obtained from The Jackson Laboratories. These animals are on a C57BL/61 background (www.jax.org/strain/002508). AnMmp-9KO mouse colony was established from animals (stock No. 007084) obtained from The Jackson Laboratories. These animals are on a mixed background but have been bred into the C57BL/6J background for five generations (www.jax.org/strain/007084). […]
# Outflow facility determination: Mouse eyes were enucleated immediately after euthanasia. Outflow facility was determined using a constant pressure method, as previously described. […] Flow was constantly measured via a microfluidic flow sensor (0.07-1.5 uL/min, MFS1; Elveflow, Paris, France). […] Any eyes that developed visible leaks during outflow facility determination, or that had pressure-flow correlations with R^2<0.9, were excluded from analysis but were used for RNA quantification.
# [3] = system: MMP-2, MMP-9, MMP-13 expression in HTM cells; assay: MMP expression in HTM cells (Examples 17, 18); format: cell-based, human; conditions: PA treated HTM cells; p<0.0001
# [4] = intravitreal; toxicity attributed to arginine in the commercial preparations; cited from earlier work
substance,measurement,setting,value
"tPA: recombinant human tissue plasminogen activator (ACTILYSE; Boehringer Ingelheim), enzymatically active",dose dependence of the IOP effect,"[1]; 100, 200, 500 and 1000 μg, p>0.05 ANOVA",independent of the dose
same,ocular findings,"[1]; intravitreal tPA, unrelated to the dose injected",Transient injection and corneal clouding was observed in some eyes
same,mean (±SD) IOP after tPA,"[1]; within 24 h of intravitreal tPA, all doses tested (100-1000 μg), prednisolone continued, before 24.1 (±1.6)",14.1 (±1.1) mmHg
same,effect on steroid-induced IOP elevation,sheep; 100 μg in one eye concurrent with prednisolone acetate three times a day,prevented IOP elevation
same,ocular findings,sheep; 100 μg tPA,Transient injection and corneal clouding was observed in some eyes
same,effect on IOP,[2],no effect
same,effect on outflow facility,Mmp-9KO mice,did not increase outflow facility
same,expression (FIG. 17C) compared to PA+BSA treated cells,[3],significant upregulation
same,doses with reported retinal toxicity,[4],50-100 lag
